According to PubChem BioAssay (NCI):
“And” between values parts separate entries of the source, which are not always exact repeats. Identical values can stand only once.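 Dose response: 5 concentrations. Exposure: 48 h. Format: 96-well plates. Endpoint: linear interpolation; highest concentration if not reached. GI50: concentration for 50% inhibition of growth. TGI is the concentration that stops growth completely.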

Tests used:
Test in all cases: growth of human tumour cells (NCI), 48 h
[1] = tested on: COLO 205 colon
[2] = tested on: HOP-92 NSCLC
[3] = tested on: K-562 leukemia
[4] = tested on: MCF7 breast
[5] = tested on: MOLT-4 leukemia
[6] = tested on: NCI-H460 lung
[7] = tested on: RPMI-8226 leukemia
[8] = tested on: SF-268 CNS
[9] = tested on: SN12C renal
[10] = tested on: TK-10 renal

Structure (SMILES) | GI50 [1] | TGI [1] | GI50 [2] | TGI [2] | GI50 [3] | TGI [3] [µM] | GI50 [4] | TGI [4] | GI50 [5] | TGI [5] [µM] | GI50 [6] | TGI [6] | GI50 [7] | TGI [7] | GI50 [8] | TGI [8] | GI50 [9] | TGI [9] | GI50 [10] | TGI [10]
c1ccc2c(c1)CCCc1nnc3nc4ccccc4n3c1-2 | 4.78 µM | > 100 µM | 9.53 µM | > 100 µM | 3.87 µM | > 100 | 4.1 µM | > 100 µM | 4.49 µM | > 100 | 3.65 µM | 16.6 µM | 2.96 µM | 29.1 µM | 5.73 µM | > 100 µM | 8.15 µM | > 100 µM | 6.8 µM | > 100 µM
C=C1[C@H](O)C[C@@H](C(C)C(O)CC=C(C)C)[C@@H](O)[C@@H]2C(C)=CC[C@@H]12 (some centres not stated) | > 100 µM | > 100 µM | > 100 µM | > 100 µM | 53 µM | > 100 | > 100 µM | > 100 µM | 35.1 µM | > 100 | > 100 µM | > 100 µM | > 100 µM | > 100 µM | > 100 µM | > 100 µM | > 100 µM | > 100 µM | > 100 µM | > 100 µM
C[C@H]1O[C@@H](O[C@H]2[C@@H](O)C[C@H](O[C@H]3[C@@H](O)C[C@H](O[C@H]4CC[C@]5(C)C6CC[C@]7(C)[C@@H](C8=CC(=O)OC8)CC[C@]7(O)C6CC[C@@H]5C4)O[C@@H]3C)O[C@@H]2C)C[C@H](O)[C@@H]1O (some centres not stated) | 0.0309 µM | 0.102 µM | 0.0354 µM | 0.149 µM | 0.0159 µM | 0.0799 | 0.0181 µM | 0.11 µM | 0.0113 µM | 0.0341 | 0.00973 µM | 0.0231 µM | 0.0194 µM | 0.135 µM | 0.0159 µM | 0.0578 µM | 0.0167 µM | 0.112 µM | 0.0165 µM | 0.0504 µM
CN(N=O)N1C(=O)SCC(c2ccccc2)(c2ccccc2)C1=O |  | > 100 µM |  | > 100 µM |  | > 100 |  | 62.2 µM |  | > 100 |  | > 100 µM |  | 67.6 µM |  | > 100 µM |  | > 100 µM |  | > 100 µM
COc1ccc2c(c1)C(=O)CC(C(N)=O)C2 (configuration not stated) |  | > 100 µM |  | > 100 µM |  | > 100 |  | > 100 µM |  | > 100 |  | > 100 µM |  | > 100 µM |  | > 100 µM |  | > 100 µM |  | > 100 µM
Cc1ccc2c(c1)n([O-])c(C(F)(F)F)c(C(=O)c1ccco1)[n+]2=O | 0.816 µM | 2.06 µM | 0.0556 µM | 0.445 µM | 1.1 µM | 34.5 | 0.762 µM | 4.9 µM | 14.6 µM | 50 | 0.262 µM | 1.52 µM | 0.357 µM | 2.69 µM | 0.42 µM | 2.48 µM | 0.833 µM | 2.5 µM | 1.94 µM | 8.74 µM
Nc1cc2c3ccccc3ccc2c2ccccc12 | > 100 µM | > 100 µM | > 100 µM | > 100 µM | 19.3 µM | > 100 | 20.2 µM | > 100 µM | > 100 µM | > 100 | 7.63 µM | > 100 µM | > 45.9 µM | > 100 µM | > 100 µM | > 100 µM | > 100 µM | > 100 µM | > 100 µM | > 100 µM
Cc1cc(C(=O)NOCCO)c(Nc2ccc(I)cc2F)n(C)c1=O | < 0.01 µM | > 100 µM | 0.00585 µM and 0.0235 µM | 0.2 µM and 1.04 µM | 0.321 µM and 0.19 µM | > 100 | > 100 µM | > 100 µM | > 100 µM | > 100 | > 10 µM and 46.7 µM | > 100 µM | > 10 µM and 37.9 µM | > 100 µM | > 100 µM | > 100 µM | 12.3 µM | > 100 µM |  | > 100 µM
COc1cc(-c2cc(-c3ccc(Nc4nc(Nc5ccc(Cl)cc5)nc(Nc5ccc(Cl)cc5)n4)cc3)no2)cc(OC)c1OC | 2.26 µM | 21.3 µM | 0.0166 µM | 0.32 µM | 1.98 µM | 19.4 | 3 µM | 69.7 µM | 1.23 µM | 23.7 | 6.79 µM | 46.4 µM | 1.75 µM | > 100 µM | 6.05 µM | > 100 µM | 39.1 µM | > 100 µM | 25.4 µM | > 100 µM
CNC(=O)c1cc(Oc2ccc(NC(=O)Nc3ccc(Cl)c(C(F)(F)F)c3)cc2)ccn1 | 2.57 µM and 2.9 µM and 2.33 µM | 8.46 µM and 7.66 µM and 6.26 µM | 1.65 µM and 1.43 µM and 1.75 µM | 5.62 µM and 5.12 µM and 6.38 µM | 1.7 µM and 2.5 µM and 2.53 µM | > 100 | 2.62 µM and 2.41 µM and 2.82 µM | 9.82 µM and 7.38 µM and 10 µM | 2.38 µM and 3.15 µM and 2.87 µM |  | 3.17 µM and 2.88 µM and 2.44 µM | > 10 µM and 10.2 µM and 7.09 µM | 1.5 µM and 2.37 µM and 1.74 µM | 6.25 µM and 6.93 µM and 6.04 µM | 4.15 µM and 2.73 µM and 2.63 µM | > 10 µM and 10.8 µM and 7.88 µM | 2.84 µM and 2.98 µM and 2.31 µM | > 10 µM and 10.6 µM and 7.15 µM | 4.41 µM and 3.83 µM and 4.48 µM | > 10 µM and 9.96 µM and 20.2 µM
OC(CBr)C(O)C(O)C(O)CBr (configuration not stated) |  | > 100 µM | 35.8 µM and > 86.8 µM | > 100 µM |  | > 100 | 13.7 µM and 40.1 µM | > 100 µM | 10.8 µM | > 30.4 |  | > 100 µM |  | > 100 µM | > 40.6 µM and 19.3 µM | > 100 µM | 15.3 µM and 57.5 µM | > 100 µM |  | > 100 µM
S=C1NC(c2ccccc2)NC(c2ccccc2)S1 (configuration not stated) |  | > 100 µM |  | > 100 µM |  | > 100 |  | > 100 µM |  | > 100 |  | 63.3 µM |  | > 100 µM |  | > 100 µM |  | > 100 µM |  | > 100 µM
C=C1CC2(CC(c3ccccc3C)OC(c3ccccc3C)C2)OC1=O (configuration not stated) |  | 3.68 µM |  | 3.18 µM |  | 5.09 |  | 3.87 µM |  | 21.4 |  | 14.2 µM |  | 4.12 µM |  | 3.6 µM |  | 4.42 µM |  | 4.14 µM
CN1c2cccc[c]2[Sn]([CH3])([CH3])[c]2ccccc21 | 0.015 µM | 0.0572 µM | 0.01 µM | 0.104 µM | < 0.01 µM | 2.13 | < 0.01 µM |  | 0.0101 µM | 0.936 | < 0.01 µM | 0.0126 µM | < 0.0119 µM | 0.0316 µM | < 0.0178 µM | 0.165 µM | < 0.0138 µM | 0.116 µM | < 0.0192 µM | 0.135 µM
CC(=O)Nc1ccc2c(c1)[nH]c(=O)c1cc(NC(C)=O)ccc12 | > 100 µM | > 100 µM | 31.9 µM | > 100 µM | 59.5 µM | > 100 | > 100 µM | > 100 µM | 20 µM | 50 | > 100 µM | > 100 µM | > 100 µM | > 100 µM | > 100 µM | > 100 µM | > 100 µM | > 100 µM | > 100 µM | > 100 µM
O=C(Nc1n[nH]c2cc(-c3ccc(F)cc3)ccc12)C1CC1 | 8.12 µM | > 18.8 µM | 23.3 µM | > 25 µM | 3.69 µM | > 25 | 5.54 µM | > 22.2 µM | 10.4 µM | > 25 | 7.47 µM | > 25 µM | 8.44 µM | > 25 µM | 11 µM | > 25 µM | 10.8 µM | > 25 µM | > 20.8 µM | > 25 µM
CCN(Cc1c(F)cccc1C(F)(F)F)c1ccc(CO)c(Cl)c1 | 2.44 µM | 14 µM | 0.856 µM | 16 µM | 0.692 µM | 13 | 0.156 µM | 15.7 µM | 16.5 µM | 37.1 | 0.0894 µM | 17.2 µM | 1.47 µM | 21.9 µM | 16.6 µM | 31.5 µM | 13 µM | 26.2 µM | 0.0682 µM | 0.322 µM
O=C(COc1ccc(Cl)cc1Cl)NNc1ccc([N+](=O)[O-])cc1 | 95.7 µM | > 100 µM | 12.1 µM | 31.7 µM | 39 µM | > 100 | > 100 µM | > 100 µM | 81.6 µM | > 100 | > 100 µM | > 100 µM | > 100 µM | > 100 µM | 36.9 µM | > 100 µM | 80 µM | > 100 µM | 30.1 µM | 74.2 µM
COc1ccc(N2CCN(c3nc(-c4ccccn4)nc4sc5c(c34)CCCCCC5)CC2)cc1 | 5.61 µM | > 100 µM | 3.24 µM | > 100 µM | 4.15 µM | > 100 | 3.15 µM | > 100 µM | 3.26 µM | > 100 | 4.67 µM | > 100 µM | 3.74 µM | > 100 µM | > 100 µM | > 100 µM | 5.99 µM | > 100 µM | > 100 µM | > 100 µM
O=C1NC(=O)/C(=C/c2ccc3nccc(-c4ccncc4)c3c2)S1 | 0.454 µM | 3.67 µM | 0.0806 µM | 0.494 µM | 1.89 µM | > 10 | 0.164 µM | > 10 µM | 0.645 µM | 9.91 | 0.487 µM | > 10 µM | 1.19 µM | 6.75 µM | 0.346 µM | 5.15 µM | 0.396 µM | > 10 µM | 0.197 µM | 1.24 µM
O=[N+]([O-])c1ccc(NC(c2ccccc2)c2ccc3cccnc3c2O)cc1 (configuration not stated) | 0.448 µM | > 100 µM | 0.234 µM | > 100 µM | 0.376 µM | > 100 | 0.335 µM | > 100 µM | 0.344 µM | > 100 | 0.253 µM | 1.39 µM | 0.313 µM | > 100 µM | 0.378 µM | > 100 µM | 0.935 µM | > 100 µM | 0.932 µM | > 100 µM
COc1cc2cc(C(=O)Nc3ccccc3)c(N)nc2cc1OC | 34 µM | > 100 µM | 8.29 µM | 90.1 µM | 41.7 µM | > 100 | 48.8 µM | > 100 µM | 38.5 µM | > 100 | 73.9 µM | > 100 µM | 28.3 µM | > 100 µM | 81.8 µM | > 100 µM | 53.8 µM | > 100 µM | 63.5 µM | > 100 µM
